From US20030073699A1, “Compounds and methods to treat cardiac failure and other disorders” (priority 1998, published 2003)
pIC50: −log10 of the molar value.

Key:
Type in all cases: biochemical
[1] = target: p38α (Homo sapiens, UniProt Q16539); experiment: p38 kinase inhibition assay, activity for p38α; conditions: for pIC50: inhibition of p38α, based on IC50 curves; for Fold increase Piperidinyl/Piperazinyl: p38α potency of piperidinyl versus corresponding piperazinyl compound
[2] = target: p38β (Homo sapiens, UniProt Q15759); experiment: p38 kinase inhibition assay, specificity versus p38β; conditions: for pIC50: read-out: P38-β IC50; for IC50 ratio β/α: specificity for p38α as compared to p38β
Procedure: (§1) The compounds to be tested were solubilized in DMSO and diluted into water to the desired concentrations. The p38 kinase was diluted to 10 μg/ml into a buffer containing 20 mM MOPS, pH 7.0,25 mM beta-glycerol phosphate, 2 mg/ml gelatin; 0.5 mM EGTA, and 4 mM DTT.
(§2) The reaction was carried out by mixing 20 μl test compound with 10 μl of a substrate cocktail containing 500 μg/ml peptide substrate and 0.2 mM ATP (+200 μCi/ml gamma-32P-ATP) in a 4× assay buffer. The reaction was initiated by the addition of 10 μl of p38 kinase. […] After a 40 minute incubation at room temperature, the reaction was stopped by the addition of 10 μl per reaction of 0.25 M phosphoric acid.
A portion of the reaction was spotted onto a disk of P81 phosphocellulose paper, the filters were dried for 2 minutes and then washed 4× in 75 mM H3PO4. The filters were rinsed briefly in 95% ethanol, dried, then placed in scintillation vials with liquid scintillation cocktail.
Alternatively, the substrate is previously biotinylated and the resulting reactions are spotted on SAM^2™ streptavidin filter squares (Promega). The filters are washed 4× in 2M NaCl, 4× in 2M NaCl with 1% phosphoric acid, 2× in water, and briefly in 95% ethanol. The filter squares are dried and placed in scintillation vials with liquid scintillation cocktail.
(§3) Counts incorporated are determined on a scintillation counter. Relative enzyme activity is calculated by subtracting background counts (counts measured in the absence of enzyme) from each result, and comparing the resulting counts to those obtained in the absence of inhibitor. IC50 values were determined with curve-fitting plots available with common software packages. Approximate IC50 values were calculated using formula
where A=fractional activity and i=total inhibitor concentration.
The compounds of the invention as well as those containing piperazine, generally, are specific for p38α as compared to p38β. […] It is seen that the specificity for α as opposed to β is generally of the order of ten-fold.

[3] = target: p38 kinase (Homo sapiens, UniProt Q16539); experiment: Assay for p38 kinase inhibition (Example 19); conditions: tested as described in Example 19
Procedure: as §1, §2
A portion of the reaction was spotted onto a disk of P81 phosphocellulose paper, the filters were dried for 2 minutes and then washed 4× in 75 mM H3PO4. The filters were rinsed briefly in 95% ethanol, dried, then placed in scintillation vials with liquid scintillation cocktail. […]
as §3, with “formula […]” for “formula”

Chain of p38β (Q15759 whole entry): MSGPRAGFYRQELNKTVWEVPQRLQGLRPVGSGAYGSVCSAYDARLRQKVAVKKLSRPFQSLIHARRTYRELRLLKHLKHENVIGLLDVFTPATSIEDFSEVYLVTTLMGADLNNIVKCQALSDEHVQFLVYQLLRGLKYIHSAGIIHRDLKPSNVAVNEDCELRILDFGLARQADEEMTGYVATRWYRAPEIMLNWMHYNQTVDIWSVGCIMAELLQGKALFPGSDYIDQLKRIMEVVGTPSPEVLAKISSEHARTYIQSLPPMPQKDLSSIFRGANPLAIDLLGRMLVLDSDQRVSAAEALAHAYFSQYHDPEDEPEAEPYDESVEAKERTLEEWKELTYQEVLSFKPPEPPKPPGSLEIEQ
Chain of p38α (Q16539 whole entry): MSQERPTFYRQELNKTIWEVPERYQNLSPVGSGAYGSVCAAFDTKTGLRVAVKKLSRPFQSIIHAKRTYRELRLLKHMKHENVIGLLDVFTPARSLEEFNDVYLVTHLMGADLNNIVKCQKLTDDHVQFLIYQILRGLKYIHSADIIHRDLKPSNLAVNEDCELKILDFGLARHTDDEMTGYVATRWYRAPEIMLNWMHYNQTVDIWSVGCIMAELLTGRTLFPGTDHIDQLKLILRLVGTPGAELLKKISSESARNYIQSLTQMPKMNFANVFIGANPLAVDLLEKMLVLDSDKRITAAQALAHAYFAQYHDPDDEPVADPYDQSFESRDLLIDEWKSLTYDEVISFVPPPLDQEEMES
Chain of p38 kinase (Q16539 whole entry): as above

Row | Molecule | pIC50 [1] | pIC50 [2] | IC50 ratio β/α [2] | Fold increase Piperidinyl/Piperazinyl [1] | pIC50 [3]
1 | O=C(c1ccc2cc[nH]c2c1)N1CCN(Cc2ccccc2)CC1 [Piperazinyl 6] | 5.26 | 4.41 | 7.08 |  | 
2 | O=C(c1cccc2[nH]ccc12)N1CCN(Cc2ccccc2)CC1 [Piperazinyl 4, reference compound] | 5.81 | 4.62 | 15.6 |  | 
3 | O=C(c1cc2ccccc2[nH]1)N1CCC(Cc2ccccc2)CC1 [Piperidinyl 2] | 5.58 |  |  |  | 
4 | O=C(c1c[nH]c2ccccc12)N1CCN(Cc2ccccc2)CC1 [Piperazinyl 3, reference compound] | 5.32 | 4.47 | 7.17 |  | 
5 | O=C(c1ccc2[nH]ccc2c1)N1CCN(Cc2ccccc2)CC1 [Piperazinyl 5] |  | 4.59 | 15.1 |  | 
6 | O=C(c1c[nH]c2ccccc12)N1CCC(Cc2ccccc2)CC1 [Piperidinyl 3] | 6.79 | 5.75 | 10.9 | 29.1 | 
7 | O=C(c1ccc2[nH]ccc2c1)N1CCC(Cc2ccccc2)CC1 [Piperidinyl 5, 4-benzylpiperidinyl-indole-5-carboxamide] | 6.82 | 5.52 |  |  | 
8 | O=C(c1ccc2cc[nH]c2c1)N1CCC(Cc2ccccc2)CC1 [Piperidinyl 6, 4-benzylpiperidinyl-indole-6-carboxamide] |  | 5.42 |  |  | 
9 | O=C(c1cccc2[nH]ccc12)N1CCC(Cc2ccccc2)CC1 [Piperidinyl 4, 4-benzylpiperidinyl-indoie-4-carboxamide] | 6.80 | 5.61 | 15.3 | 9.7 | 
10 | O=C(c1cccc2cc[nH]c12)N1CCN(Cc2ccccc2)CC1 [Piperazinyl 7] | < 4.52 |  |  |  | 
11 | 4-(4-benzyl piperazinyl)-indole-2-carboxamide [Piperazinyl 2] | < 4.52 |  |  |  | 
12 | CC1CC(Cc2ccccc2)CCN1C(=O)c1ccc2[nH]ccc2c1 (stereo not shown) [Example 18] |  |  |  |  | 6.55
13 | O=C(c1cccc2cc[nH]c12)N1CCC(Cc2ccccc2)CC1 [Piperidinyl 7] | 5.15 |  |  | >4.3 | 
